Laboratory results reported in US20240158446A1, “CYCLIC COMPOUND HAVING SELECTIVE INHIBITORY ACTION ON KRAS OVER HRAS AND NRAS” (CHUGAI SEIYAKU KABUSHIKI KAISHA, priority 2021, published 2024).
Where a SMILES comes first, the peptide text is derived from it. Bridges are numbered along the chain shown (N, C = ends). [ ]: non-standard residue; d: D form. The star is where a group is joined. hPhe(3-Cl-4-CF3) = N[C@@H](CCc1ccc(C(F)(F)F)c(Cl)c1)C(=O)O; NPrPhe(4-CF3) = CCCN[C@@H](Cc1ccc(C(F)(F)F)cc1)C(=O)O; NMeNva(3-Et) = CCC(CC)[C@H](NC)C(=O)O; NMeChg = CN[C@H](C(=O)O)C1CCCCC1; NMeD = CN[C@@H](CC(=O)O)C(=O)O; NMeL = CN[C@@H](CC(C)C)C(=O)O; Morpholide = C1CN(*)CCO1; Ac4c = NC1(C(=O)O)CCC1; Sar = CNCC(=O)O

Key:
[1] = molecular target: GDP-bound KRAS wild-type protein (Homo sapiens, UniProt P01116); experiment: Binding to KRAS by surface plasmon resonance (SPR), Single Cycle Kinetics; settings: SPR, Single Cycle Kinetics, GDP-bound KRAS wild-type protein; read-out: KRAS KD
Chain of GDP-bound KRAS wild-type protein (P01116 whole entry): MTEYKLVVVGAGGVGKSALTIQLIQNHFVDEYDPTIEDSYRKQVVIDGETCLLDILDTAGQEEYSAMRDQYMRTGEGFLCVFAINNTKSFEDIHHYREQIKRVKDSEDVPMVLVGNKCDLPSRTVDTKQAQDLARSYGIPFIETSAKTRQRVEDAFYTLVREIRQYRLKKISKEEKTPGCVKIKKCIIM

[2] = molecular target: GDP-bound NRAS wild-type protein (Homo sapiens, UniProt P01111); experiment: Binding to NRAS by surface plasmon resonance (SPR), Single Cycle Kinetics; settings: ratio of KD for GDP-bound NRAS wild-type protein to KD for KRAS, SPR
Chain of GDP-bound NRAS wild-type protein (P01111 whole entry): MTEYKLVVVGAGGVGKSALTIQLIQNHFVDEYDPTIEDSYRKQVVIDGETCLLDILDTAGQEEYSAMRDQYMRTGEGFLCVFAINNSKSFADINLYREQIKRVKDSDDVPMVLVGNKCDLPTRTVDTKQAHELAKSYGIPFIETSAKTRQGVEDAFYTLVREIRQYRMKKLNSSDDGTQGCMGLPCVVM

[3] = molecular target: GDP-bound HRAS wild-type protein (Homo sapiens, UniProt P01112); experiment: Binding to HRAS by surface plasmon resonance (SPR), Single Cycle Kinetics; settings: ratio of KD for GDP-bound HRAS wild-type protein to KD for KRAS, SPR
Chain of GDP-bound HRAS wild-type protein (P01112 whole entry): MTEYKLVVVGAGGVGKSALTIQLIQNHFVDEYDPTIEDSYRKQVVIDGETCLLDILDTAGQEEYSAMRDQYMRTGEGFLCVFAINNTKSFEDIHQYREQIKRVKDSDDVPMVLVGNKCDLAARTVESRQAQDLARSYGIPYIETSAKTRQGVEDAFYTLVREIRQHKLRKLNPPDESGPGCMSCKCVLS

[4] = system: human lung cancer strain NCI-H441; experiment: cells; settings: NCI-H441, 96 h, read-out: NCI-H441 IC50 (nM), NCI-H441 cell proliferation, 4 days, CellTiter-Glo;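 also: cell proliferation inhibition after four days measured by CellTiter-Glo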

Row | SMILES | Kd [1] | NRAS/KRAS (KD ratio) [2] | HRAS/KRAS (KD ratio) [3] | IC50 [4]
1 | C#CC[C@H]1C(=O)N[C@@H]([C@@H](C)CC)C(=O)N(C)CC(=O)N(C)[C@H]2C/C=C\CCN(C2=O)[C@@H](Cc2ccc(C(F)(F)F)cc2)C(=O)N(C)CC(=O)N[C@@H](CCc2cc(F)c(C(F)(F)F)c(F)c2)C(=O)N2C[C@H](OCC)C[C@H]2C(=O)NC2(CC(F)(F)C2)C(=O)N(C)[C@@H](C2CCCC2)C(=O)N(C)[C@H](C(=O)N(C)CCC)CC(=O)N1C [PP1737] | 0.11 nM | A (a compound having 10 or more and less than 20 is denoted as A) | A (a compound having 10 or more and less than 20 is denoted as A) | 2.7 nM
2 | CCCN1C(=O)CN(C)C(=O)CN(C)C(=O)[C@H]([C@@H](C)CC)NC(=O)[C@H](CC(C)C)N(C)C(=O)C[C@@H](C(=O)N(C)C)N(C)C(=O)[C@H](C(CC)CC)N(C)C(=O)C2(CCC2)NC(=O)[C@@H]2CCCN2C(=O)[C@H](CCc2ccc(C(F)(F)F)c(Cl)c2)NC(=O)CN(C)C(=O)[C@@H]1Cc1ccc(C(F)(F)F)cc1 [PP1960] ([NMeL]I[Sar][Sar][NPrPhe(4-CF3)][Sar][hPhe(3-Cl-4-CF3)]P[Ac4c][NMeNva(3-Et)][NMeD]-NMe2; lactam N-11) | 0.17 nM | B (a compound having 3 or more and less than 10 is denoted as B) | C (A compound having a KD ratio of 0.1 or more and less than 3 is denoted as C) | 6 nM
3 | CCC[C@H]1C(=O)N[C@@H]([C@@H](C)CC)C(=O)N[C@@H](C)C(=O)N(C)[C@H]2C/C=C\CCN(C2=O)[C@@H](Cc2ccc(C(F)(F)F)cc2)C(=O)N(C)CC(=O)N[C@@H](CCc2cc(F)c(C(F)(F)F)c(F)c2)C(=O)N2C[C@H](OCC)C[C@H]2C(=O)NC2(CC(C)(C)C2)C(=O)N(C)[C@@H](C2CCCC2)C(=O)N(C)[C@H](C(=O)N(C)C)CC(=O)N1C [PP1927] | 0.85 nM | A (a compound having 10 or more and less than 20 is denoted as A) | A (a compound having 10 or more and less than 20 is denoted as A) | 23.5 nM
4 | CC[C@H](C)[C@@H]1NC(=O)[C@H](CC2CC2)N(C)C(=O)C[C@@H](C(=O)N(C)C)N(C)C(=O)[C@H](C2CCCC2)N(C)C(=O)C2(CCC2)NC(=O)[C@@H]2C[C@@H](C)CN2C(=O)[C@H](CCc2ccc(C(F)(F)F)c(OC)c2)NC(=O)CN(C)C(=O)[C@H](Cc2ccc(C)cc2)N2CC/C=C\C[C@@H](C2=O)N(C)C(=O)CN(C)C1=O [PP1863] | 0.13 nM | A (a compound having 10 or more and less than 20 is denoted as A) | A (a compound having 10 or more and less than 20 is denoted as A) | 88.8 nM
5 | CC[C@H](C)[C@@H]1NC(=O)[C@H](CC)N(C)C(=O)C[C@@H](C(=O)N(C)C)N(C)C(=O)[C@H](C2CCCC2)N(C)C(=O)C2(CCCC2)N(C)C(=O)[C@@H]2C[C@@H](C)CN2C(=O)[C@H](CCc2cc(F)c(C(F)(F)F)c(F)c2)NC(=O)CN(C)C(=O)[C@H](Cc2ccc(C)cc2)N2CC/C=C\C[C@@H](C2=O)N(C)C(=O)CN(C)C1=O [PP1812] | 0.059 nM | A (a compound having 10 or more and less than 20 is denoted as A) | A (a compound having 10 or more and less than 20 is denoted as A) | 7.8 nM
6 | CC[C@H](C)[C@@H]1NC(=O)[C@H](C2CC2)N(C)C(=O)C[C@@H](C(=O)N(C)C)N(C)C(=O)[C@H](C2CCCC2)N(C)C(=O)C2(CCCC2)N(C)C(=O)[C@@H]2C[C@@H](C)CN2C(=O)[C@H](CCc2cc(F)c(C(F)(F)F)c(F)c2)NC(=O)CN(C)C(=O)[C@H](Cc2ccc(C)cc2)N2CC/C=C\C[C@@H](C2=O)N(C)C(=O)CN(C)C1=O [PP1813] | 0.12 nM | A (a compound having 10 or more and less than 20 is denoted as A) | B (a compound having 3 or more and less than 10 is denoted as B) | 22.6 nM
7 | CCCN1C(=O)CN(C)C(=O)CN(C)C(=O)[C@H]([C@@H](C)CC)NC(=O)[C@H](CC(C)C)N(C)C(=O)C[C@@H](C(=O)N2CCOCC2)N(C)C(=O)[C@H](C2CCCCC2)N(C)C(=O)C2(CCC2)NC(=O)[C@@H]2CCCN2C(=O)[C@H](CCc2ccc(C(F)(F)F)c(Cl)c2)NC(=O)CN(C)C(=O)[C@@H]1Cc1ccc(C(F)(F)F)cc1 [PP1928] ([NMeL]I[Sar][Sar][NPrPhe(4-CF3)][Sar][hPhe(3-Cl-4-CF3)]P[Ac4c][NMeChg][NMeD]-Morpholide; lactam N-11) | 0.25 nM | B (a compound having 3 or more and less than 10 is denoted as B) | B (a compound having 3 or more and less than 10 is denoted as B) | 18.4 nM
8 | CCO[C@@H]1C[C@H]2C(=O)NC3(CC(C)(C)C3)C(=O)N(C)[C@@H](C3CCCC3)C(=O)N3CCC[C@@H]3CC(=O)N(C)[C@@H](CC3CC3)C(=O)N[C@@H]([C@@H](C)CC)C(=O)N(C)CC(=O)N(C)[C@H]3C/C=C\CCN(C3=O)[C@@H](Cc3ccc(C(F)(F)F)cc3)C(=O)N(C)CC(=O)N[C@@H](CCc3cc(F)c(C(F)(F)F)c(F)c3)C(=O)N2C1 [PP1611] | 1.3 nM | B (a compound having 3 or more and less than 10 is denoted as B) | B (a compound having 3 or more and less than 10 is denoted as B) | 28 nM
9 | CC[C@H](C)[C@@H]1NC(=O)[C@H](CC)N(C)C(=O)C[C@@H](C(=O)N(C)C)N(C)C(=O)[C@H](C2CCCC2)N(C)C(=O)C2(CC(C)(C)C2)NC(=O)[C@@H]2C[C@H](C)CN2C(=O)[C@H](CCc2ccc(C(F)(F)F)c(Cl)c2)NC(=O)CN(C)C(=O)[C@H](Cc2ccc(C)cc2)N2CC/C=C\C[C@@H](C2=O)N(C)C(=O)CN(C)C1=O [PP1844] | 0.07 nM | A (a compound having 10 or more and less than 20 is denoted as A) | B (a compound having 3 or more and less than 10 is denoted as B) | 12.3 nM
